How the values were obtained:
[1] = tested on: normal NK cells expanded with K562-aAPC; test: percent inhibition of viability; higher = more inhibition; details: 72 h, IL-2 2.5 ng/mL
Procedure: (§1)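 Drug sensitivity and resistance testing on K562-aAPC-expanded normal NK cells: 5 concentrations (10-fold steps over a 10,000-fold range), 72 h at 37 °C, viability by CellTiter-Glo normalised to DMSO and benzethonium chloride controls; DSS from the fitted curve.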

[2] = tested on: normal NK cells expanded with K562-aAPC; test: drug sensitivity score (DSS) (DSS units); higher = more sensitive; extreme values may be limits of the assay; details: 72 h; IL-2 2.5 ng/mL
Procedure: as §1

[3] = tested on: DERL-7 (IL-2 2.5 ng/mL); test: as above; details: 72 h
[4] = tested on: normal primary NK cells, pool 1 (3 donors) (IL-2 2.5 ng/mL); test: as above; details: 72 h
[5] = tested on: NKL (IL-2 2.5 ng/mL); test: as above; details: 72 h
[6] = tested on: KAI3 (IL-2 2.5 ng/mL); test: as above; details: 72 h
[7] = tested on: IMC-1 (IL-2 20 ng/mL); test: as above; details: 72 h
[8] = tested on: normal primary NK cells, pool 1 (3 donors), resting (IL-2 0 ng/mL); test: as above; details: 72 h
[9] = tested on: SNK-6 (IL-2 2.5 ng/mL); test: as above; details: 72 h
[10] = tested on: normal primary NK cells, pool 2 (3 donors) (IL-2 2.5 ng/mL); test: as above; details: 72 h
[11] = tested on: normal primary NK cells, pool 3 (3 donors) (IL-2 2.5 ng/mL); test: as above; details: 72 h
[12] = tested on: YT (IL-2 2.5 ng/mL); test: as above; details: 72 h
[13] = tested on: KHYG-1 (IL-2 2.5 ng/mL); test: as above; details: 72 h
[14] = tested on: NK-YS (IL-2 2.5 ng/mL); test: as above; details: 72 h
[15] = tested on: NK-92 (IL-2 2.5 ng/mL); test: as above; details: 72 h
[16] = tested on: DERL-7 (IL-2 2.5 ng/mL); test: percent inhibition of viability; higher = more inhibition; details: 72 h
[17] = tested on: normal primary NK cells, pool 1 (3 donors) (IL-2 2.5 ng/mL); test: as above; details: 72 h
[18] = tested on: NKL (IL-2 2.5 ng/mL); test: as above; details: 72 h
[19] = tested on: KAI3 (IL-2 2.5 ng/mL); test: as above; details: 72 h
[20] = tested on: IMC-1 (IL-2 20 ng/mL); test: as above; details: 72 h
[21] = tested on: normal primary NK cells, pool 1 (3 donors), resting (IL-2 0 ng/mL); test: as above; details: 72 h
[22] = tested on: SNK-6 (IL-2 2.5 ng/mL); test: as above; details: 72 h
[23] = tested on: normal primary NK cells, pool 2 (3 donors) (IL-2 2.5 ng/mL); test: as above; details: 72 h
[24] = tested on: normal primary NK cells, pool 3 (3 donors) (IL-2 2.5 ng/mL); test: as above; details: 72 h
[25] = tested on: YT (IL-2 2.5 ng/mL); test: as above; details: 72 h
[26] = tested on: KHYG-1 (IL-2 2.5 ng/mL); test: as above; details: 72 h
[27] = tested on: NK-YS (IL-2 2.5 ng/mL); test: as above; details: 72 h
[28] = tested on: NK-92 (IL-2 2.5 ng/mL); test: as above; details: 72 h

O=c1[nH]c(=O)n([C@H]2C[C@H](O)[C@@H](CO)O2)cc1F [Floxuridine] (max concentration tested 10000 nM)
percent inhibition of viability [%]
Details	1 nM	10 nM	100 nM	1000 nM	10000 nM
[1]	-4.55	-4.54	25.1	39.5	43.4
[16]	-7.14	68.8	44.1	69.8	94.3
[17]	-6.27	-7.98	-5.58	6.75	5.43
[18]	-14.5	15.7	48.8	68.5	82.9
[19]	-6.31	31.3	63.4	63.7	45.6
[20]	-2.91	-1.68	33.5	96.1	95.4
[21]	-14.4	-13.5	-18.7	8.19	9.19
[22]	15.3	9.27	54	91.8	89.4
[23]	-16.1	-13.4	-7.65	-1.05	8.12
[24]	-14	-7.11	-9.62	-2.43	-3.12
[25]	-3.94	0.97	9.92	50.2	57.9
[26]	0.05	58.9	96.8	99.1	95.1
[27]	-4.95	13.6	73.5	84	78.7
[28]	-16.2	25.2	72.5	82.6	78.8

Details	drug sensitivity score
[2]	10.9
[3]	25.9
[4]	0
[5]	20.2
[6]	24
[7]	22
[8]	0
[9]	23.3
[10]	0
[11]	0
[12]	10.4
[13]	37.2
[14]	25.9
[15]	27.2
